pKi: −log10 of the molar value.
Columns and labels:
mice = assay: Mouse Forced Swim Test (mFST); assay type: in vivo; conditions: 1 mg/Kg i.v., 15 min before swim session
Description: Mouse Forced Swim Test (mFST).
Forced Swim Test (FST) is an animal model used to assess antidepressant compounds in preclinical studies. The FST was performed similar to the method of Porsolt et al. with modifications (Porsolt R D, Bertin A, Jalfre M. Behavioral despair in mice: a primary screening test for antidepressants. Arch Int Pharmacodyn Ther 1977; 229:327-36). In this paradigm, mice are forced to swim in an inescapable cylinder filled with water. Under these conditions, mice will initially try to escape and eventually develop immobility behavior; this behavior is interpreted as a passive stress-coping strategy or depression-like behavior. […] The duration of immobility was evaluated during the total 6 min of the test and expressed as duration (sec) of immobility. […] All testing sessions were recorded with a video camera (Sony Handicam, Model: DCR-HC38E; PAL) and scoring was done using the Forced Swim Scan, Version 2.0 software (Clever Systems Inc., Reston, Va., USA; see Hayashi E, Shimamura M, Kuratani K, Kinoshita M, Hara H. Automated experimental system capturing three behavioral components during murine forced swim test. Life Sci. 2011 Feb. 28; 88(9-10):411-7 and Yuan P, Tragon T, Xia M, Leclair C A, Skoumbourdis A P, Zheng W, Thomas C J, Huang R, Austin C P, Chen G, Guitart X. Phosphodiesterase 4 inhibitors enhance sexual pleasure-seeking activity in rodents. […]

[1] = biological target: NR2B-subtype NMDA receptors (Rattus norvegicus (Rat), UniProt P35439+Q00960); assay: Radioligand binding assay (3H Ro 25-6981 competition, rat forebrain membranes); conditions: 3H Ro 25-6981 (4 nM)
Description: Radioligand Binding Assay.
Binding experiments to determine binding to NR2B-subtype NMDA receptors were performed on forebrains of 8-10 weeks old male Sprague Dawley rats (Harlan, Netherlands) using ^3H Ro 25-6981 (Mutel V; Buchy D; Klingelschmidt A; Messer J; Bleuel Z; Kemp J A; Richards J G. Journal of Neurochemistry, 1998, 70(5):2147-2155. Rats were decapitated without anesthesia using a Guillotine (approved by animal ethics committee) and the harvested brains were snap-frozen and stored at −80° C. for 3-6 months for membrane preparation.
For membrane preparation, rat forebrains were thawed on ice for 20 minutes in homogenization buffer composed of 50 mM KH2PO4 (pH adjusted to 7.4 with KOH), 1 mM EDTA, 0.005% Triton X 100 and protease inhibitor cocktail (Sigma Aldrich). Thawed brains were homogenized using a Dounce homogenizer and centrifuged at 48000×g for 20 min. The pellet was resuspended in cold buffer and homogenized again using a Dounce homogenizer. Subsequently, the homogenate was aliquoted, snap-frozen and stored at −80° C. for not more than 3-4 months.
To perform the competition binding assay, thawed membrane homogenate was added to each well of a 96-well plate (20 μg/well). […] The filter plates were dried at 50° C. for 20 mins, incubated with microscint 20 for 10 minutes and finally, the counts were read on TopCount (Perkin Elmer).

[2] = biological target: brain-resident NR2B-subtype receptors (Mus musculus (Mouse), UniProt P35438+Q01097); assay: Ex vivo occupancy assay; assay type: in vivo; conditions: animals after dosing; no dose stated
Description: 7-9 weeks old male CD-1 mice were dosed intravenously in a vehicle consisting of 10% dimethylacetamide, 40% PEG-400, 30% hydroxypropyl betacyclodextrin, and 30% water with experimental compounds and the forebrains were harvested 15 minutes post-dosing by decapitation. The brain samples were immediately snap-frozen and stored at −80° C. On the following day, the dosed brain samples were thawed on ice for 15-20 minutes followed by homogenization using Polytron for 10 seconds in cold homogenization buffer composed of 50 mM KH2PO4 (pH adjusted to 7.4 with KOH), 1 mM EDTA, 0.005% Triton X 100 and protease inhibitor cocktail (Sigma Aldrich). The crude homogenates were further homogenized using a Dounce homogenizer and the homogenized membrane aliquots from all animals were flash-frozen and stored at −80° C. until further use. The whole homogenization process was performed on ice. For determining occupancy, the membrane homogenates were first thawed on ice and then needle-homogenized using a 25 gauge needle. The homogenized membrane (6.4 mg/ml) was added to a 96-well plate followed by addition of ^3H Ro 25-6981 (6 nM). […] The filter plates were dried at 50° C. for 20 mins, incubated with microscint 20 for 10 minutes and read on TopCount (Perkin Elmer). […] Non-specific binding was determined using 10 μM Ro 25-6981 added to the wells containing membrane homogenates from vehicle-dosed animals. […]

NR2B-subtype NMDA receptors, sequence (Q00960 27-1482, other chains not shown): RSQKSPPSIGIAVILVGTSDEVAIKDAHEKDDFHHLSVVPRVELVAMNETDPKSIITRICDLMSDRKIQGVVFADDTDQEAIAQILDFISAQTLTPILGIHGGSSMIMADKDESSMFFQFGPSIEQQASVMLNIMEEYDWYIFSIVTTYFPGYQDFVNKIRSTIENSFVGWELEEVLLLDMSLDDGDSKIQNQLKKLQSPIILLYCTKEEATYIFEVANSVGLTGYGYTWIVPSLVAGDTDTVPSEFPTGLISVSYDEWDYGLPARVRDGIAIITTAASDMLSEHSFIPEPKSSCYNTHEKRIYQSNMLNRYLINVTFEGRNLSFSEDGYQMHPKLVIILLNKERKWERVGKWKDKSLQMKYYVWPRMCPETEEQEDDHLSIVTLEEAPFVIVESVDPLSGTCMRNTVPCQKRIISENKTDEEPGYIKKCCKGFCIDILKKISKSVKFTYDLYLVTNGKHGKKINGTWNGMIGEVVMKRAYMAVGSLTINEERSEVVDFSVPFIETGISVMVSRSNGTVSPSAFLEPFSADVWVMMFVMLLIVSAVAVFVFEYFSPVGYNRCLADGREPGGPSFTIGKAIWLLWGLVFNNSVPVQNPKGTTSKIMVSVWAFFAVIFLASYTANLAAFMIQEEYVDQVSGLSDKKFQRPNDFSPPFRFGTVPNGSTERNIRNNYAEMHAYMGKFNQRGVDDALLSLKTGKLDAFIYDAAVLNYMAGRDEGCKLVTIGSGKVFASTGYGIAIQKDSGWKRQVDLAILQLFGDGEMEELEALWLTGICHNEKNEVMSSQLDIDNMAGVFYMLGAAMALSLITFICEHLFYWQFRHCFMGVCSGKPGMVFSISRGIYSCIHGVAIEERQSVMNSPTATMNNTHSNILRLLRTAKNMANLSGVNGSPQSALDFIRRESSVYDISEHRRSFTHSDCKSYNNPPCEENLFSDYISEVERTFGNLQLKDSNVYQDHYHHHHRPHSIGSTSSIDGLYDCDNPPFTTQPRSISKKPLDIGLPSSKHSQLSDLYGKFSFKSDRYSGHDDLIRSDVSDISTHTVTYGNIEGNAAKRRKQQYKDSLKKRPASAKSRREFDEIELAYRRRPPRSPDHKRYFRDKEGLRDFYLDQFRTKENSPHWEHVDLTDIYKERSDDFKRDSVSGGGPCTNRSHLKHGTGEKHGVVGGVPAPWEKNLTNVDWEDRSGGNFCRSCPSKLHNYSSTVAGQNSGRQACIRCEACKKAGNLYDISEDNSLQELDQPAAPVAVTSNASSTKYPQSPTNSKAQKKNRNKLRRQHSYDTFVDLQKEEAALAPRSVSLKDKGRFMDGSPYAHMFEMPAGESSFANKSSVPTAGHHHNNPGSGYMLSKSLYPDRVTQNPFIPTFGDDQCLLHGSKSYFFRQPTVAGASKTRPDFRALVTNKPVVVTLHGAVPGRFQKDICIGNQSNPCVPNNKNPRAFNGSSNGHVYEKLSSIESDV
brain-resident NR2B-subtype receptors, sequence (Q01097 27-1482, other chains not shown): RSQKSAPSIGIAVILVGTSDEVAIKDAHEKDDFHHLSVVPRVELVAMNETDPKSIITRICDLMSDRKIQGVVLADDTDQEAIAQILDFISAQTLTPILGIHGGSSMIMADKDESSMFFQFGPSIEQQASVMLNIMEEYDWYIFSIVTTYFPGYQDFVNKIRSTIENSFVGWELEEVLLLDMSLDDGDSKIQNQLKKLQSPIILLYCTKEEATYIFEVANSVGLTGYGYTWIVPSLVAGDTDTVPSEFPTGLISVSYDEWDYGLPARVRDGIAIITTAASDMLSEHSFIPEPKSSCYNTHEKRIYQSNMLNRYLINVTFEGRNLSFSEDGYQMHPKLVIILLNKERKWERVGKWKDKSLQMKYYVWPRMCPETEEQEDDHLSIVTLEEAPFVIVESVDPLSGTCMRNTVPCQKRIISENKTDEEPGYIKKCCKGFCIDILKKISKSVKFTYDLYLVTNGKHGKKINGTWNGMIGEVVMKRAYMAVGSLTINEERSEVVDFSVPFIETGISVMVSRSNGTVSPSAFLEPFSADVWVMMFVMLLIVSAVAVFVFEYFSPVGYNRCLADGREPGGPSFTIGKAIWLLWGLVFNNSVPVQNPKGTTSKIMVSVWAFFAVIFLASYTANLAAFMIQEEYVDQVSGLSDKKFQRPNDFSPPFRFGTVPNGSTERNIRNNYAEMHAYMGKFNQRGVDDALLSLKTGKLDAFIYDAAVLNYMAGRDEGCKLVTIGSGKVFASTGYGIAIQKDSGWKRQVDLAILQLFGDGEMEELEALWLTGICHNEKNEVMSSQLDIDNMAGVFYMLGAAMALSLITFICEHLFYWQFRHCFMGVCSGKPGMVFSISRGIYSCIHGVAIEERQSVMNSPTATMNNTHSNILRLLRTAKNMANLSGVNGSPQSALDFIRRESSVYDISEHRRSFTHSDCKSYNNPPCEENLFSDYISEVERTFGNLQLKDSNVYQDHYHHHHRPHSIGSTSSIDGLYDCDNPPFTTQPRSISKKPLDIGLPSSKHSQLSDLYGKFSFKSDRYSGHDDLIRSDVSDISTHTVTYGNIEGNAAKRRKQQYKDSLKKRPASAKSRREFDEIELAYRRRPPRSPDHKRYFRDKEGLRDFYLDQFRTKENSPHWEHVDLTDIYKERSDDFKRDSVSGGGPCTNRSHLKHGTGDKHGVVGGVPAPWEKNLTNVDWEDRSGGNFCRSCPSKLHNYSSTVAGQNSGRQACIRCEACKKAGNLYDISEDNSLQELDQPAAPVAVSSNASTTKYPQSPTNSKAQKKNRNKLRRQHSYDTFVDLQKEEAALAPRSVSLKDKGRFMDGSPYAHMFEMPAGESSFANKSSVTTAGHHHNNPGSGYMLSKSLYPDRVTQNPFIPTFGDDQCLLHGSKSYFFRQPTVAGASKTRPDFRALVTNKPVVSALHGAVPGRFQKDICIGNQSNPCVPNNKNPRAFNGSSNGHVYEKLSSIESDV

pKi [1] | Compound | further results
 | Cc1ccc(CN2OCC(N3CCN(c4ccc(O)cn4)CC3)C2=O)cc1 (single isomer, unassigned) [10,P-1, 4-(4-(5-hydroxypyridin-2-yl)piperazin-1-yl)-2-(4-methylbenzyl)isoxazolidin-3-one] | immobility time (mice): statistically significant decrease in immobility time
8.26 | Cc1ccc(CN2OCCC(N3CCC(c4ccc(O)cc4)CC3)C2=O)cc1 (racemic) [Example 4, 4-(4-(4-hydroxyphenyl)piperidin-1-yl)-2-(4-methylbenzyl)-1,2-oxazinan-3-one] | 
7.82 | O=C1C(N2CCC(c3ccc(O)cn3)CC2)CON1Cc1ccc(F)cc1 (racemic) [Example 3, 2-(4-fluorobenzyl)-4-(4-(5-hydroxypyridin-2-yl)piperidin-1-yl)isoxazolidin-3-one] | 
 | Cc1ccc(CN2OCC(N3CCC(c4ccc(O)cc4)CC3)C2=O)cc1 (single isomer, unassigned) [2,P-2, 4-(4-(4-hydroxyphenyl)piperidin-1-yl)-2-(4-methylbenzyl)isoxazolidin-3-one] | occupancy of brain-resident NR2B-subtype receptors (in words) [2]: occupies brain-resident NR2B-subtype receptors
